Tested on: MV-4-11 cells
Experiment: Gene expression microarray analysis (Affymetrix PrimeView) and GSEA
Format: cell-based, human
Set-up: RFU PODN (11730768_x_at) / Fold change /veh PODN (11730768_x_at) / RFU LINC00158 (11744669_a_at) / Fold change /veh LINC00158 (11744669_a_at) / RFU DUSP10 (11751237_a_at) / Fold change /veh DUSP10 (11751237_a_at) / RFU ID3 (11757404_x_at) / Fold change /veh ID3 (11757404_x_at) / RFU PLEKHG5 (11737974_s_at) / Fold change /veh PLEKHG5 (11737974_s_at) / RFU LRRC4B (11730491_at) / Fold change /veh LRRC4B (11730491_at) / RFU GIMAP4 (11747438_a_at) / Fold change /veh GIMAP4 (11747438_a_at) / RFU KRT8 (11758183_x_at) / Fold change /veh KRT8 (11758183_x_at) / RFU CNN1 (11734310_a_at) / Fold change /veh CNN1 (11734310_a_at) / RFU VPS37D (11726825_at) / Fold change /veh VPS37D (11726825_at) / RFU C10orf10 (11716522_x_at) / Fold change /veh C10orf10 (11716522_x_at) / RFU KIR2DL2 /// KIR2DL4 /// KIR2DL5A /// KIR2DL5B /// KIR2DS1 /// KIR2DS2 /// KIR2DS3 /// KIR2DS4 /// KIR3DL3 /// KIR3DL3 /// KIR3DS1 (11738374_at) / Fold change /veh KIR2DL2 /// KIR2DL4 /// KIR2DL5A /// KIR2DL5B /// KIR2DS1 /// KIR2DS2 /// KIR2DS3 /// KIR2DS4 /// KIR3DL3 /// KIR3DL3 /// KIR3DS1 (11738374_at) / RFU C1QL1 (11718748_at) / Fold change /veh C1QL1 (11718748_at) / RFU TMPRSS4 (11747572_a_at) / Fold change /veh TMPRSS4 (11747572_a_at) / RFU HAMP (11756126_x_at) / Fold change /veh HAMP (11756126_x_at) / RFU RNFT2 (11725882_a_at) / Fold change /veh RNFT2 (11725882_a_at) / RFU NR4A2 (11747474_a_at) / Fold change /veh NR4A2 (11747474_a_at) / RFU ABCC12 (11746883_a_at) / Fold change /veh ABCC12 (11746883_a_at) / RFU TMEM136 (11760407_x_at) / Fold change /veh TMEM136 (11760407_x_at) / RFU CLDN22 /// WWC2 (11732394_at) / Fold change /veh CLDN22 /// WWC2 (11732394_at) / RFU HLA-DPB1 (11760878_x_at) / Fold change /veh HLA-DPB1 (11760878_x_at) / RFU SPINT1 (11716480_a_at) / Fold change /veh SPINT1 (11716480_a_at) / RFU GAP43 (11754022_s_at) / Fold change /veh GAP43 (11754022_s_at) / RFU A4GNT (11735810_at) / Fold change /veh A4GNT (11735810_at) / RFU PRB3 (11715151_x_at) / Fold change /veh PRB3 (11715151_x_at) / RFU TUBB4B (11761932_at) / Fold change /veh TUBB4B (11761932_at) / RFU CAPN14 (11732068_a_at) / Fold change /veh CAPN14 (11732068_a_at) / RFU TMCC2 (11721928_a_at) / Fold change /veh TMCC2 (11721928_a_at) / RFU IRGQ (11745062_a_at) / Fold change /veh IRGQ (11745062_a_at) / RFU FAM174B (11720279_a_at) / Fold change /veh FAM174B (11720279_a_at) / RFU TMPRSS4 (11748680_a_at) / Fold change /veh TMPRSS4 (11748680_a_at) / RFU FAM212B (11763350_a_at) / Fold change /veh FAM212B (11763350_a_at) / RFU PLEKHG5 (11743358_a_at) / Fold change /veh PLEKHG5 (11743358_a_at) / RFU ZSCAN30 (11745921_a_at) / Fold change /veh ZSCAN30 (11745921_a_at) / RFU CMKLR1 (11741424_a_at) / Fold change /veh CMKLR1 (11741424_a_at) / RFU LOC101060620 /// MAPK8IP1 (11723275_at) / Fold change /veh LOC101060620 /// MAPK8IP1 (11723275_at) / RFU SPTSSB (11747773_x_at) / Fold change /veh SPTSSB (11747773_x_at) / RFU PRSS12 (11739890_at) / Fold change /veh PRSS12 (11739890_at) / RFU BIN1 (11741810_x_at) / Fold change /veh BIN1 (11741810_x_at) / RFU WNT11 (11732464_a_at) / Fold change /veh WNT11 (11732464_a_at) / RFU C10orf10 (11716521_a_at) / Fold change /veh C10orf10 (11716521_a_at) / RFU C5orf56 (11738089_at) / Fold change /veh C5orf56 (11738089_at) / RFU CYB561 (11721691_x_at) / Fold change /veh CYB561 (11721691_x_at) / RFU ANKRD19P (11752326_a_at) / Fold change /veh ANKRD19P (11752326_a_at) / RFU OR2T12 /// OR2T33 /// OR2T8 (11738714_s_at) / Fold change /veh OR2T12 /// OR2T33 /// OR2T8 (11738714_s_at) / RFU VCAN (11748164_a_at) / Fold change /veh VCAN (11748164_a_at) / RFU JSRP1 (11732532_at) / Fold change /veh JSRP1 (11732532_at) / RFU KRTAP10-11 (11738290_x_at) / Fold change /veh KRTAP10-11 (11738290_x_at) / RFU MYO3A (11730013_a_at) / Fold change /veh MYO3A (11730013_a_at) / RFU EBF3 (11725865_a_at) / Fold change /veh EBF3 (11725865_a_at) / RFU CAMK2N1 (11719241_x_at) / Fold change /veh CAMK2N1 (11719241_x_at) / RFU C5orf56 (11738088_a_at) / Fold change /veh C5orf56 (11738088_a_at) / RFU OLFML3 (11715873_a_at) / Fold change /veh OLFML3 (11715873_a_at) / RFU LOC100653217 /// NTM (11731650_a_at) / Fold change /veh LOC100653217 /// NTM (11731650_a_at) / RFU MAPK11 (11762145_a_at) / Fold change /veh MAPK11 (11762145_a_at) / RFU FIZ1 (11724087_x_at) / Fold change /veh FIZ1 (11724087_x_at) / RFU OASL (11726364_x_at) / Fold change /veh OASL (11726364_x_at) / RFU SOX15 (11748057_x_at) / Fold change /veh SOX15 (11748057_x_at) / RFU CD79A (11719716_a_at) / Fold change /veh CD79A (11719716_a_at) / RFU HIST1H1D (11736915_at) / Fold change /veh HIST1H1D (11736915_at) / RFU CASKIN2 (11723855_a_at) / Fold change /veh CASKIN2 (11723855_a_at) / RFU LOC730098 (11760151_x_at) / Fold change /veh LOC730098 (11760151_x_at) / RFU OR4N2 (11742367_at) / Fold change /veh OR4N2 (11742367_at) / RFU PRRT2 (11749266_a_at) / Fold change /veh PRRT2 (11749266_a_at) / RFU SNX32 (11753110_a_at) / Fold change /veh SNX32 (11753110_a_at) / RFU CDHR5 (11726645_a_at) / Fold change /veh CDHR5 (11726645_a_at) / RFU RCAN1 (11760418_a_at) / Fold change /veh RCAN1 (11760418_a_at) / RFU FAM167A (11723789_a_at) / Fold change /veh FAM167A (11723789_a_at) / RFU FAM26E (11764081_at) / Fold change /veh FAM26E (11764081_at) / RFU ISYNA1 (11749810_s_at) / Fold change /veh ISYNA1 (11749810_s_at) / RFU ACY1 (11761880_at) / Fold change /veh ACY1 (11761880_at) / RFU 11764098_at / Fold change /veh 11764098_at / RFU SAMD14 (11745864_x_at) / Fold change /veh SAMD14 (11745864_x_at) / RFU NPB (11741838_a_at) / Fold change /veh NPB (11741838_a_at) / RFU TMPRSS6 (11731388_a_at) / Fold change /veh TMPRSS6 (11731388_a_at) / RFU KRTAP10-2 (11738614_at) / Fold change /veh KRTAP10-2 (11738614_at) / RFU ARHGAP8 /// PRR5-ARHGAP8 (11727945_x_at) / Fold change /veh ARHGAP8 /// PRR5-ARHGAP8 (11727945_x_at) / RFU KRTAP5-7 /// NADSYN1 (11734609_at) / Fold change /veh KRTAP5-7 /// NADSYN1 (11734609_at) / RFU RASL12 (11751679_a_at) / Fold change /veh RASL12 (11751679_a_at) / RFU CDKN2B (11736163_a_at) / Fold change /veh CDKN2B (11736163_a_at) / RFU PRF1 (11729649_at) / Fold change /veh PRF1 (11729649_at) / RFU, ZNF638 /// ZNF638-IT1 / Fold change vs veh, ZNF638 /// ZNF638-IT1 / RFU, PANK3 / Fold change vs veh, PANK3 / RFU, SH3YL1 / Fold change vs veh, SH3YL1 / RFU, ZEB2 / Fold change vs veh, ZEB2 / RFU, NRIP1 / Fold change vs veh, NRIP1 / RFU, PTTG1IP / Fold change vs veh, PTTG1IP / RFU, CAPN2 / Fold change vs veh, CAPN2 / RFU, MED14 / Fold change vs veh, MED14 / RFU, SNORA58 / Fold change vs veh, SNORA58 / RFU, C1orf63 / Fold change vs veh, C1orf63 / RFU, LRRFIP1 / Fold change vs veh, LRRFIP1 / RFU, NDUFAF7 / Fold change vs veh, NDUFAF7 / RFU, SLC12A2 / Fold change vs veh, SLC12A2 / RFU, IBTK / Fold change vs veh, IBTK / RFU, ESF1 / Fold change vs veh, ESF1 / Fold change vs veh, TMEM50B / RFU, TAOK1 / Fold change vs veh, TAOK1 / RFU, ACBD3 / Fold change vs veh, ACBD3 / RFU, TMA16 / Fold change vs veh, TMA16 / RFU, RWDD3 / Fold change vs veh, RWDD3 / RFU, BCAT1 / Fold change vs veh, BCAT1 / RFU, EDEM3 / Fold change vs veh, EDEM3 / RFU, TMEM33 / Fold change vs veh, TMEM33 / RFU, WDR75 / Fold change vs veh, WDR75 / RFU, AHCTF1 / Fold change vs veh, AHCTF1 / RFU, TFRC / Fold change vs veh, TFRC / RFU, ZDHHC17 / Fold change vs veh, ZDHHC17 / RFU, NOM1 / Fold change vs veh, NOM1 / RFU, ARL8B / Fold change vs veh, ARL8B / RFU, ZBTB11 / Fold change vs veh, ZBTB11 / RFU, TAMM41 / Fold change vs veh, TAMM41 / RFU, KIAA1704 /// LOC100996395 / Fold change vs veh, KIAA1704 /// LOC100996395 / RFU, ING1 / Fold change vs veh, ING1 / RFU, TRMT61B / Fold change vs veh, TRMT61B / RFU, FUBP3 / Fold change vs veh, FUBP3 / RFU, TP53 / Fold change vs veh, TP53 / RFU, TNKS2 / Fold change vs veh, TNKS2 / RFU, ZFP14 / Fold change vs veh, ZFP14 / RFU, ACTR2 / Fold change vs veh, ACTR2 / RFU, PPP3R1 / Fold change vs veh, PPP3R1 / RFU, PIK3R1 / Fold change vs veh, PIK3R1 / RFU, HNRNPA1 / Fold change vs veh, HNRNPA1 / RFU, RNF170 / Fold change vs veh, RNF170 / RFU, ZNF28 / Fold change vs veh, ZNF28 / RFU, RNGTT / Fold change vs veh, RNGTT / RFU, OGT / Fold change vs veh, OGT / RFU, BRD1 / Fold change vs veh, BRD1 / RFU, MARS / Fold change vs veh, MARS / RFU, ZNF655 / Fold change vs veh, ZNF655 / RFU, FAHD1 / Fold change vs veh, FAHD1 / RFU, BDP1 / Fold change vs veh, BDP1 / RFU, LRRCC1 / Fold change vs veh, LRRCC1 / RFU, ARID1A / Fold change vs veh, ARID1A / RFU, ZNF146 / Fold change vs veh, ZNF146 / RFU, ZNF330 / Fold change vs veh, ZNF330 / RFU, GPN3 / Fold change vs veh, GPN3 / RFU, C9orf123 / Fold change vs veh, C9orf123 / RFU, N4BP2L2 / Fold change vs veh, N4BP2L2 / RFU, ARFIP1 / Fold change vs veh, ARFIP1 / RFU, FAM179B / Fold change vs veh, FAM179B / RFU, BCL10 / Fold change vs veh, BCL10 / RFU, UHRF1BP1L / Fold change vs veh, UHRF1BP1L / RFU, BET1 / Fold change vs veh, BET1 / RFU, CNOT2 / Fold change vs veh, CNOT2 / RFU, ZNF268 / Fold change vs veh, ZNF268 / Fold change vs veh, ZNF507 / RFU, DGCR2 / Fold change vs veh, DGCR2 / RFU, WDSUB1 / Fold change vs veh, WDSUB1 / Fold change vs veh, HSP90B1 /// MIR3652 / RFU, ADSS / Fold change vs veh, ADSS / RFU, GK / Fold change vs veh, GK / RFU, ZNF148 / Fold change vs veh, ZNF148 / RFU, TAF9 / Fold change vs veh, TAF9 / RFU, SLC1A5 / Fold change vs veh, SLC1A5 / RFU, SLMO2 / Fold change vs veh, SLMO2 / RFU, ABCC4 / Fold change vs veh, ABCC4 / RFU, LOC101060439 /// RAP1B / Fold change vs veh, LOC101060439 /// RAP1B / RFU, RFX7 / Fold change vs veh, RFX7 / RFU, GTPBP10 / Fold change vs veh, GTPBP10 / RFU, CNEP1R1 / Fold change vs veh, CNEP1R1 / RFU, BIVM-ERCC5 /// ERCC5 / Fold change vs veh, BIVM-ERCC5 /// ERCC5 / RFU, ILF3 / Fold change vs veh, ILF3 / RFU 11762660_at / Fold change /veh 11762660_at / RFU VCAN (11757783_s_at) / Fold change /veh VCAN (11757783_s_at) / RFU DDX43 (11728927_at) / Fold change /veh DDX43 (11728927_at) / RFU KRT8 (11758188_x_at) / Fold change /veh KRT8 (11758188_x_at) / RFU NKD1 (11759106_at) / Fold change /veh NKD1 (11759106_at) / RFU SRD5A1 (11742802_a_at) / Fold change /veh SRD5A1 (11742802_a_at) / RFU TPSAB1 /// TPSB2 (11721975_s_at) / Fold change /veh TPSAB1 /// TPSB2 (11721975_s_at) / RFU GSTM3 (11746129_a_at) / Fold change /veh GSTM3 (11746129_a_at) / RFU IL23R (11737362_x_at) / Fold change /veh IL23R (11737362_x_at) / RFU TMEM51 (11727254_a_at) / Fold change /veh TMEM51 (11727254_a_at) / RFU PIWIL2 (11732686_x_at) / Fold change /veh PIWIL2 (11732686_x_at) / RFU ORM1 (11744905_x_at) / Fold change /veh ORM1 (11744905_x_at) / RFU CCDC152 (11743942_at) / Fold change /veh CCDC152 (11743942_at) / RFU ECM1 (11717891_a_at) / Fold change /veh ECM1 (11717891_a_at) / RFU IL23R (11748794_a_at) / Fold change /veh IL23R (11748794_a_at) / RFU TNFAIP8L3 (11732012_x_at) / Fold change /veh TNFAIP8L3 (11732012_x_at) / RFU MBOAT4 (11741988_at) / Fold change /veh MBOAT4 (11741988_at) / RFU 11764193_at / Fold change /veh 11764193_at / RFU TMEM53 (11763286_at) / Fold change /veh TMEM53 (11763286_at) / RFU MAGEB2 (11727129_at) / Fold change /veh MAGEB2 (11727129_at) / RFU TMEM200A (11744735_a_at) / Fold change /veh TMEM200A (11744735_a_at) / RFU CCDC152 (11751479_a_at) / Fold change /veh CCDC152 (11751479_a_at) / RFU FAM211A (11726209_a_at) / Fold change /veh FAM211A (11726209_a_at) / RFU RGS16 (11746705_a_at) / Fold change /veh RGS16 (11746705_a_at) / RFU VCAN (11755009_s_at) / Fold change /veh VCAN (11755009_s_at) / RFU RHOB (11743442_s_at) / Fold change /veh RHOB (11743442_s_at) / RFU RGS16 (11720943_a_at) / Fold change /veh RGS16 (11720943_a_at) / RFU RGS16 (11720944_at) / Fold change /veh RGS16 (11720944_at) / RFU, VPS4B / Fold change vs veh, VPS4B / RFU, CREB1 / Fold change vs veh, CREB1 / RFU, DNAJC13 / Fold change vs veh, DNAJC13 / RFU, GNAQ / Fold change vs veh, GNAQ / RFU, CDK5R1 / Fold change vs veh, CDK5R1 / RFU, ZRANB3 / Fold change vs veh, ZRANB3 / RFU, CUL4A / Fold change vs veh, CUL4A / RFU, CCNY / Fold change vs veh, CCNY / RFU, UFL1 / Fold change vs veh, UFL1 / RFU, COG3 / Fold change vs veh, COG3 / RFU, DIAPH2 / Fold change vs veh, DIAPH2 / RFU, SKA2 / Fold change vs veh, SKA2 / RFU, AFF3 / Fold change vs veh, AFF3 / RFU, LMF1 / Fold change vs veh, LMF1 / RFU, IPO11 / Fold change vs veh, IPO11 / RFU, DFFB / Fold change vs veh, DFFB / RFU, FOXP1 / Fold change vs veh, FOXP1 / RFU, CARD8 / Fold change vs veh, CARD8 / RFU, STRN3 / Fold change vs veh, STRN3 / RFU, ADK / Fold change vs veh, ADK / RFU, RASSF2 / Fold change vs veh, RASSF2 / RFU, WIPF1 / Fold change vs veh, WIPF1 / RFU, LARP1B / Fold change vs veh, LARP1B / RFU, RASA1 / Fold change vs veh, RASA1 / RFU, RB1 / Fold change vs veh, RB1 / RFU, PPFIA1 / Fold change vs veh, PPFIA1 / RFU, MAT2A / Fold change vs veh, MAT2A / RFU, CCT5 / Fold change vs veh, CCT5 / RFU, WDR92 / Fold change vs veh, WDR92 / RFU, CUX1 / Fold change vs veh, CUX1 / RFU, TTC7A / Fold change vs veh, TTC7A / RFU, TMEM135 / Fold change vs veh, TMEM135 / RFU, DEPTOR / Fold change vs veh, DEPTOR / RFU, CPM / Fold change vs veh, CPM / RFU, DNAJB6 / Fold change vs veh, DNAJB6 / RFU, CACNA2D3 / Fold change vs veh, CACNA2D3 / RFU, DTX4 / Fold change vs veh, DTX4 / RFU, TFCP2 / Fold change vs veh, TFCP2 / RFU, GMCL1 /// GMCL1P1 / Fold change vs veh, GMCL1 /// GMCL1P1 / RFU, AEBP2 / Fold change vs veh, AEBP2 / RFU, SNHG1 /// SNORD22 /// SNORD25 /// SNORD26 /// SNORD27 /// SNORD28 /// SNORD29 /// SNORD31 / Fold change vs veh, SNHG1 /// SNORD22 /// SNORD25 /// SNORD26 /// SNORD27 /// SNORD28 /// SNORD29 /// SNORD31 / Fold change (Aza/veh), C12orf56 (ProbeSet 11735607_a_at) / Fold change (ACY-1035/veh), C12orf56 (ProbeSet 11735607_a_at) / Fold change (Aza/veh), FGFR1OP (ProbeSet 11751329_s_at) / Fold change (ACY-1035/veh), FGFR1OP (ProbeSet 11751329_s_at) / Fold change (Aza/veh), VPS36 (ProbeSet 11739960_a_at) / Fold change (ACY-1035/veh), VPS36 (ProbeSet 11739960_a_at) / RFU SYPL1 (11715823_x_at) / Fold change /veh SYPL1 (11715823_x_at) / RFU IGFBP7 (11715501_s_at) / Fold change /veh IGFBP7 (11715501_s_at) / RFU REEP3 (11722064_at) / Fold change /veh REEP3 (11722064_at) / RFU IGLL1 (11728026_x_at) / Fold change /veh IGLL1 (11728026_x_at): dose or concentration left out as unconfirmed
Settings: MV-4-11 cells, 48 hours

For `Nc1ccc(-c2cccs2)cc1NC(=O)c1ccc2c(c1)cc(C1CC1)n2CCN1CCOCC1` [ACY-1035], the “Fold change /veh PODN (11730768_x_at)” value was 1.05.
